Experimental data as given in patent US20190365728A1, “PHARMACEUTICAL COMPOSITION COMPRISING BETAHISTINE” (Otolanum AG, priority 2017, published 2019).
Marks after values point to notes of the source that are not given here.

How the values were obtained:
[1] = Minor metabolites HEP and AEP in human plasma (LC-MS/MS); type: in vivo
Description: For the first time it was also possible to determine the two minor betahistine metabolites aminoethylpyridine (AEP) and hydroxyethylpyridine (HEP) in human plasma.
HEP and AEP concentrations were determined using liquid chromatographic tandem mass spectrometry (SCIEX API 4000) with a validated method. HEP-d4 and AEP-d4 dihydrochloride served as internal standards. […] The limit of quantitation was 1 ng/mL in case of HEP and 10 pg/mL in case of AEP.

[2] = Pharmacokinetic profile in beagle dogs after single oral, intranasal and intravenous betahistine; type: in vivo
Description: In this study, the pharmacokinetic profile of betahistine was evaluated after a single dose administration of betahistine in male and female beagle dogs (age 5-7 months; weight of 5-11 kg, within a range of 3 kg for each sex) for three routes of administration: oral, intranasal, and intravenous.
On Day 1 of the study, betahistine (BH) was delivered orally at a dose of 12 mg/kg, 24 mg/kg, or 48 mg/kg. Each treatment group comprised 8 animals (4 males and 4 females). For pharmacokinetic assessment, plasma samples were collected prior to dosing, and then at 5, 10, 20 and 30 min, 1, 2, 3, 6, 24 hours after dosing.
On Day 8 of the study, the animals that received oral BH at a dose of 12 mg/kg were administered the test betahistine composition intranasally at a dose of 40 mg betahistine dihydrochloride; the animals that received oral BH at a dose of 24 mg/kg were administered the test betahistine composition intranasally at a dose of 80 mg betahistine dihydrochloride; and the animals that received oral BH at a dose of 48 mg/kg were administered the test betahistine composition intranasally at a dose of 120 mg betahistine dihydrochloride. The test betahistine composition was delivered intranasally in a single dose via an Aptar nasal spray pump device at a total dose level of 40, 80 and 120 mg of betahistine dihydrochloride. Plasma samples were collected prior to dosing, and then at 5, 10, 20 and 30 min, 1, 2, 3, 6, 24 hours after dosing.
On Day 15 of the study, the animals that received oral BH at a dose of 12 mg/kg and the test betahistine composition intranasally at a dose of 40 mg betahistine dihydrochloride were administered a bolus intravenous injection of betahistine at a dose of 0.44 mg/kg. Plasma samples were collected prior to dosing, and then at 5, 10, 20 and 30 min, 1, 2, 3, 6, 24 hours after dosing.
Betahistine 13CD3 dihydrochloride and 2-pyridylacetic acid-D4 hydrochloride were used as respective internal standards. The calibration range for betahistine was 0.05-250 ng/mL and for 2-PAA 2.00-3000 ng/mL using a plasma sample volume of 0.50 mL.
For determination of betahistine, the method involved liquid-liquid extraction, for 2-PAA, the method involved protein precipitation. Plasma samples were prepared for betahistine by extraction under basic conditions with an organic solvent, then the organic phase was dried, reconstituted and transferred for LC/MS-MS analysis. […] Sample analysis was performed using reversed phase chromatography.

[3] = Single-dose and 14-day repeat-dose toxicology/toxicokinetic study of intranasal betahistine in beagle dogs; type: in vivo
Description: Sample analysis was conducted using reversed phase chromatography.

[4] = metabolite of betahistine, background statement; cited from earlier work
clinical = details: human
Description: The safety and pharmacokinetic profile of intranasal betahistine with single and multiple dosing was evaluated in a single-site randomized, placebo-controlled Phase I dose-escalation trial. 72 healthy male and female subjects aged between 18 and 60 years and with a BMI of 18.5 to 30 kg/m^2 were enrolled. In one group, the subjects received single dose intranasal betahistine in four dose cohorts of 10, 20, 40 or 60 mg or multiple dose intranasal betahistine (three times daily for 3 days) in four dose cohorts of 5, 10, 20 or 40 mg (double blind). Subjects received first the single dose and then, following a wash-out period, the multiple doses with the exception of the 5 mg and 60 mg doses which were tested only under one dose regimen. For reference purposes, another group of subjects received single dose oral betahistine in four dose cohorts at 48, […], 192 or 384 mg (single blind).
With each actuation of the nasal spray, 100 μL were delivered (1 actuation at 50 mg/mL for 5 mg and at 200 mg/mL for 20 mg, respectively; 2 actuations at 50 mg/mL for 10 mg and at 200 mg/mL for 40 mg, respectively, into each nostril; 3 actuations at 200 mg/mL for 60 mg with 2 into one nostril and 1 into the other) while the subject was in an upright position.
Serial blood samples were collected at various time points, starting at pre-dose and over a maximum of 72 hours following dosing.
All plasma samples were stored at −95 to −65° C. until all samples had been collected and sent in two separate shipments for analysis.

[5] = Relative bioavailability of intranasal vs oral betahistine in humans (Example 3 vs Barak et al.); type: in vivo; details: human
Description: For the calculation of the relative bioavailability of intranasal betahistine compared to peroral betahistine, the area under the concentration-time curve (AUC) determined in Example 3 was compared to the AUC determined in a study with oral betahistine in healthy volunteers described in Barak et al. (Journal of Psychopharmacology, 2016, Vol. 30(3) 237-241). In brief, in this study, forty-eight healthy women were recruited and randomized to receive per os (i.e. orally) either betahistine 144 mg/day (48 mg t.i.d.) or matching placebo for 4 weeks. Their mean weight was 60.2 kg in the active-treated group (n=24) and 59.8 kg in the placebo group (n=24). Study medication (betahistine or matching placebo) was administered at least 30 minutes prior to eating. On Day 8, blood samples of 6 mL each were collected at 8 am, and 30, 60, 150 and 300 minutes thereafter. Plasma concentrations of betahistine and its metabolite 2-PAA were determined by high-performance liquid chromatography.

[6] = Single ascending-dose clinical trial of intranasal betahistine in healthy volunteers: safety and plasma pharmacokinetics; details: human; for tmax: median (range)
Description: The safety and pharmacokinetic profile of intranasal betahistine was further evaluated in a double-blind, randomized, placebo-controlled, single ascending-dose clinical trial involving a total of 32 healthy male and female volunteers. The main inclusion criteria were that subjects had to be aged 18-45 years and show a body mass index within the range of 18-30 kg/m^2. Subjects were required to fast for 8 hours prior to study drug administration and for 2 hours post-dose.
The betahistine was supplied as a 50 and 200 mg/mL solution in a HDPE bottle and spray pump pack (Aptar Classic Line) that delivers an accurate 100 μL per actuation. The study drug was delivered into the right nostril of subjects while they were in a supine position. For the 5 and 20 mg doses, one application of 50 and 200 mg/mL, respectively, was needed, whereas for the 10 and 40 mg doses, two applications of 50 and 200 mg/mL were required.
Serial blood samples were collected through 24 hours, following dosing on Day 1, at Day 4 and Day 7 to determine concentrations of betahistine and its main metabolite, 2-PAA in plasma. Plasma samples were assayed for BH content using validated procedures and methods. Blood samples (6 mL) were collected into tubes containing K2EDTA and were centrifuged at approximately 2000 g for 10 minutes at +4° C. and the resultant plasma transferred into 2 clean, labelled 2 mL cryovials. All plasma samples were stored at −70° C. or below until all samples had been collected and sent as a single batch for analysis. Aliquot 1 and 2 were sent as separate shipments. Concentrations were determined using liquid chromatographic tandem mass spectrometry (LC-MS/MS; SCIEX API 5000 for betahistine and SCIEX API 4000 for 2-PAA) with a validated method. Betahistine-^13CD3 dihydrochloride and 2-PAA-D4 hydrochloride served as internal standards. The standard calibration range—using a plasma sample volume of 0.2 and 0.1 mL, respectively—for betahistine was 10 to 800 pg/mL and for 2-PAA it was 2 to 2000 ng/mL. The limit of quantitation was 10 pg/mL for betahistine and 2.0 ng/mL for 2-PAA.
In case of betahistine, the method involved a liquid-liquid extraction; in case of 2-PAA it involved protein precipitation. For betahistine, plasma samples were extracted under basic conditions with an organic solvent; the organic phase was dried and reconstituted in reconstitution solvent. Approximately 0.120 mL of the aqueous layer was transferred into polypropylene vials for LC-MS/MS analysis. For 2-PAA plasma samples were precipitated with a mixture of organic solvents, supernatant was diluted and 0.120 mL was transferred into polypropylene vials for LC-MS/MS analysis. Sample analysis was conducted using reversed phase chromatography.
For each subject who completed the study, plasma concentration-time data of betahistine and 2-PAA were used for the calculation of the following pharmacokinetic parameters:
Dose normalized parameters Cmax/Dose and AUC/Dose were also calculated.

## OCCc1ccccn1 [HEP, hydroxyethylpyridine]
[1]; in vivo
  median tmax: 15 min

## O=C(O)Cc1ccccn1 [Variant 2-PAA, 2-pyridylacetic acid]
[2]; male, beagle, dog, in vivo
  Tmax, median (min-max): 0.13 (0.08-0.33) hr
[3]; both, beagle, dog, in vivo
  last measurable values: 24 hours post-dose
[4]
  pharmacological activity: no pharmacological activity

## NCCc1ccccn1 [AEP, aminoethylpyridine]
[1]; AEP, human, intranasal betahistine 60 mg
  plasma concentration: barely detectable

## CNCCc1ccccn1 [betahistine]
[2]; both, beagle, dog, in vivo
  salivation: noted in most animals
  sneezing, animals affected: 2/8
[2]; dogs, single intranasal 40-120 mg
  tolerability: well tolerated
[2]; female, beagle, dog, in vivo, iv, 0.44 mg/kg
  Cmax: 4.37 ± 8.84 ng/mL
clinical; both, in vivo
  apparent half-life: less than 1 h
  exposure AUC0-6 unadjusted for dose, intranasal vs oral 48 mg: 5-29 fold
  nasal pain, share of administrations: 4%
  post-nasal drip, share of administrations: 5%
  runny nose, share of administrations: 6%
  time of maximum concentrations: 5 to 20 min
clinical; both, in vivo, 3 days
  accumulation over time: No accumulation
clinical; both, in vivo, po
  time of maximum concentrations: 15 to 30 min
clinical; both, in vivo, tmax, Median (range)
  tmax: 15 min
clinical; intranasal multiple dosing three times daily over three days
  dose up to which safety and tolerability could be shown: up to 40 mg
clinical; intranasal single doses
  dose up to which safety and tolerability could be shown: up to 60 mg
[5]; Barak et al. oral vs Example 3 intranasal
  relative bioavailability of oral vs. intranasal administration: approximately 2.4%
[5]; Example 3 single intranasal 5-40 mg vs Barak et al. oral 48 mg
  bioavailability intranasal relative to oral: 20-40 times
[5]; intranasal 40 mg vs oral 48 mg (Barak et al.)
  Rel. Bioavail. intranasal relative to oral: 41.1
[3]; beagle dogs, intranasal, single dose 4-80 mg and 14-day repeat dose 12-240 mg/day
  tolerability: well tolerated
[3]; both, beagle, dog, in vivo
  body weights, clinical pathology and gross necropsy findings: unremarkable
  microscopic findings: No adverse treatment-related microscopic findings
[3]; both, beagle, dog, in vivo, 1 h
  decline of plasma concentration: more than 90%
[6]; betahistine, single intranasal 20 mg
  peak concentration in plasma: 4.1 ng/mL
[6]; single intranasal 5 mg
  tmax: 0.208 (0.08-0.33) hr
[6]; single intranasal 10 mg, mean, n=3
  t1/2: 0.883 ^a hr
[6]; single intranasal 10 mg
  tmax: 0.167 (0.08-0.17) hr
[6]; single intranasal 40 mg
  tmax: 0.125 (0.08-0.27) hr
